Measured values published in patent US20240229097A1, “SYSTEM, METHOD, DEVICE AND MANUFACTURING METHOD THEREOF FOR DETECTING CELLULAR MECHANICAL FORCE” (Ruixin (Fuzhou) Technology Co., Ltd., priority 2021, published 2024).

How the values were obtained:
Format in all cases: cell-based
[1] = tested on: non-small cell lung cancer cells A549; assay: Cell viability reflected by cellular mechanical force (micropillar light reflection device), A549 cells treated with 5FU
From the text: This embodiment specifically provides using the cellular mechanical force information obtained from any of the system for detecting cellular mechanical force described in the tenth to twelfth embodiments or the cellular mechanical force detection method described in the fourteenth embodiment to monitor cell viability.
(§1) Specifically, this embodiment cultures non-small cell lung cancer cells A549 on multiple device for detecting cellular mechanical force, treats them with different doses of the cell proliferation inhibitor 5-fluorouracil (5-FU), and monitors cellular mechanical forces at different time points using the system for detecting cellular mechanical force or the method described in the tenth to twelfth embodiments or the fourteenth embodiment. Cell proliferation and cytotoxicity are monitored at different time points using the CCK-8 assay kit, with cell viability measured by the MTT assay serving as a control, generating the data for FIGS. 16,b and c.

[2] = tested on: breast cancer cells MCF-7 multicellular aggregates; assay: 5-Fu drug sensitivity test on tumor cell multicellular aggregates on the cellular mechanical force detection device; conditions: MCF-7 aggregates, 200 μM 5-Fu, cultured for one day, FIG. 18
Experimental: More specifically, this embodiment provides a method for culturing a tumor cell multicellular aggregate on the device for detecting cellular mechanical force for drug sensitivity test, including the steps:
S1, Generation of tumor cell multicellular aggregates: FN 50 μg/mL is applied to the top of the micropillar of the device for detecting cellular mechanical force and sterilized with UV for 30 minutes; breast cancer cells MCF-7 (approximately 1×10^5 to 9×10^5 cells) are seeded on the top surface of the micropillars (number of micropillars is not limited) of the device for detecting cellular mechanical force, which is then immersed in 3dGRO™ Spheroid Medium (S3077) for more than 3 days to induce the formation of tumor cell multicellular aggregates.
S2, Applying the generated tumor cell multicellular aggregates to a 5-Fu drug sensitivity test: 200 μM of 5-Fu is added to the tumor cell multicellular aggregates and cultured for one day; in the test, before the addition of 5-Fu and one day of culture after the addition of 5-Fu on the device for detecting cellular mechanical force (with tumor cell multicellular aggregates, including the culture medium), light reflection signals are captured by the light signal detection device (CCD sensor) and cellular mechanical force distribution images are obtained using the light signal analysis device (ImageJ), as shown in FIG. 18. […]

[3] = tested on: non-small cell lung cancer cells A549; assay: MTT assay of cell viability of A549 cells treated with 5FU
From the text: as §1

[4] = different doses of 5FU, FIGS. 16,b and c

Question: How did the “time at which a significant decrease trend of cellular mechanical force is observed” value ([1]; 0.5 μM treatment dose) turn out when `O=c1[nH]cc(F)c(=O)[nH]1` [5FU, 5-fluorouracil] was run?
Answer: 6 h

Question: And the “time at which a significant decrease trend of cellular mechanical force is observed” value ([1]; 1 μM treatment dose)?
Answer: 3 h

Question: And the “cellular viability reflected by mechanical force compared to the control group (DMSO)” value ([1]; different doses of 5FU for 24 hours, relative to MTT assay, FIG. 16,b)?
Answer: greater reduction

Question: And the “cell viability reflected by cellular mechanical forces” value [1, 4]?
Answer: dose-dependent decline

Question: What about the “cell viability of tumor cell multicellular aggregates” value [2] of the same compound?
Answer: reduced

Question: And the “reflection signals of tumor cell multicellular aggregates” value [2]?
Answer: noticeably weaken

Question: What about the “cell viability measured by the conventional MTT assay” value [3, 4] of the same compound?
Answer: dose-dependent decline

Question: What about the “change in cell viability by MTT assay” value ([3]; within 12 hours of 5FU treatment, FIG. 16,c) of the same compound?
Answer: no significant change
